Measured values reported in US20140162290A1, “PROBE FOR DETECTING DEAD CELL” (RIKEN, priority 2012, published 2014).
One block for each compound: values may come before it.

Tests used:
[1] = target: T1, human Tim4 IgG Fc fusion protein, modified type hTim4-181-Fc, SEQ ID NO: 63 (Homo sapiens, UniProt Q96H15); assay: Dot blotting, binding of hTim4-181-Fc to PS; conditions: 0.15 μg of PS spotted; fusion protein 0.5 μg/mL, 4° C. overnight
T1 construct: replaced N-terminal leader; Freestyle 293F, purified
Protocol: (§1) Dot blotting was carried out by the following procedure to evaluate the binding capacity of each fusion protein (hTim4-Fc) prepared as described above to PS. On a PVDF membrane (GE Healthcare) with a size of 10 mm×10 mm, 0.15 μg of PS was spotted, and the resulting membrane was incubated in 500 μL of a blocking buffer (5% skim milk—PBS-T) in a 24-well plate at room temperature for 1 hour, to perform blocking. To the blocking buffer in the well, each fusion protein was added at a final concentration of 0.5 μg/mL, and incubation was carried out at 4° C. overnight. A control was provided by use of only the blocking buffer. Thereafter, the PVDF membrane was washed 5 times with 2 mL of PBS-T, and incubated at room temperature for 2 hours in an HRP-conjugated anti-human IgG-Fc antibody (Bethyl) solution which was 10000-fold diluted with 500 μL of the blocking buffer. Subsequently, the membrane was washed 5 times with 2 mL of PBS-T, followed by chemiluminescence using ECL prime (GE healthcare) and detection using LAS 3000 (Fujifilm).

[2] = target: T2, human Tim4 IgG Fc fusion protein, modified type hTim4-175-Fc (46 mucin domain residues), SEQ ID NO: 67 (Homo sapiens, UniProt Q96H15); assay: ELISA, binding capacity of hTim4-175-Fc to PS; conditions: n = 2
T2 construct: made in house; host or cells: Freestyle 293F cells
Excerpt: (§2) Using the primers shown in Table 4 and PrimeSTAR Mutagenesis Basal Kit (Takara Bio Inc.), vectors encoding fusion proteins having mucin domains with various lengths, in which the C-terminus and/or the N-terminus of the wild-type mucin domain was/were deleted. More specifically, phTim4-Fc was used as a template to prepare phTim4-240-Fc and phTim4-187-Fc; the obtained phTim4-187-Fc was used as a template to prepare phTim4-184-Fc, phTim4-181-Fc, phTim4-178-Fc, phTim4-175-Fc, phTim4-162-Fc, phTim4-149-Fc, phTim4-135-Fc, phTim4-130-Fc and phTim4-Δ131-187-Fc; the obtained phTim4-240-Fc was used as a template to prepare phTim4-Δ131-240-Fc; and the obtained phTim4-Δ131-187-Fc was used as a template to prepare phTim4-Δ131-187Δ241-310-Fc. […]
(§3) The obtained vector of 37.5 μg was transfected into 30 mL of 1×10^6 cells/mL Freestyle 293F cells (Life technologies) using Freestyle MAX Reagent (Life technologies), and the cells were cultured with shaking at 37° C. under 8% CO2 for 4 days. […] The purified protein was subjected to SDS-PAGE, and the molecular weight under non-reducing conditions was calculated (Table 6). […]
(§4) Into a 96-well plate, 100 μL of PS (0.5 mg/mL) or a solvent (methanol) was placed, and dried. […] An HRP-conjugated anti-human IgG-Fc antibody was used as a secondary antibody, and the absorbance due to coloring with TMB was measured using a microplate reader. […]

[3] = target: T3, human Tim4 IgG Fc fusion protein, modified type hTim4-187-Fc, SEQ ID NO: 59 (Homo sapiens, UniProt Q96H15); assay: Dot blotting, binding specificity of hTim4-187-Fc to various phospholipids; conditions: PE, PC, PI and PS spotted, 1 μL of 100 pmol/μL each; fusion protein 0.5 μg/mL, room temperature 2 hours
T3 construct: replaced N-terminal leader; Freestyle 293F, purified
Protocol: Dot blotting was carried out by the following procedure to evaluate the binding capacity of the fusion protein of the present invention to various phospholipids.
On a PVDF membrane (GE Healthcare), 1 μL each of 100 pmol/μL 3-sn-phosphatidylethanolamine (PE), L-α-phosphatidylcholine (PC), L-α-phosphatidylinositol (PI), and 3-sn-phosphatidyl-L-serine (Sigma Aldrich) were spotted, and the resulting membrane was incubated in 2 mL of a blocking buffer (5% skim milk—PBS-T) at room temperature for 1 hour, to perform blocking. To the blocking buffer in each well, hTim4-187-Fc was added at a final concentration of 0.5 μg/mL, and incubation was carried out at room temperature for 2 hours. Thereafter, the PVDF membrane was washed 5 times with 5 mL of PBS-T, and incubated at room temperature for 2 hours in an HRP-conjugated anti-human IgG-Fc antibody (Bethyl) solution which was 10000-fold diluted with 2 mL of the blocking buffer. Subsequently, the membrane was washed 5 times with 5 mL of PBS-T, followed by chemiluminescence using ECL prime (GE healthcare) and detection using LAS 3000 (Fujifilm).

[4] = target: T4, human Tim4 IgG Fc fusion protein, modified type hTim4-178-Fc (49 mucin domain residues), SEQ ID NO: 65 (Homo sapiens, UniProt Q96H15); assay: ELISA, binding capacity of hTim4-178-Fc to PS; conditions: n = 2
T4 construct: made in house; host or cells: Freestyle 293F cells
Excerpt: as §2, §3, §4

[5] = target: T5, human Tim4 IgG Fc fusion protein, modified type hTim4-187-Fc (58 mucin domain residues), SEQ ID NO: 59 (Homo sapiens, UniProt Q96H15); assay: ELISA, binding capacity of hTim4-187-Fc to PS; conditions: n = 2
T5 construct: made in house; host or cells: Freestyle 293F cells
Excerpt: as §2, §3, §4

[6] = target: T6, human Tim4 IgG Fc fusion protein, modified type hTim4-240-Fc (111 mucin domain residues), SEQ ID NO: 51 (Homo sapiens, UniProt Q96H15, V240A); assay: ELISA, binding capacity of hTim4-240-Fc to PS; conditions: n = 2
T6 construct: made in house; host or cells: Freestyle 293F cells
Excerpt: as §2, §3, §4

[7] = target: T7, human Tim4 IgG Fc fusion protein, modified type hTim4-184-Fc, SEQ ID NO: 61 (Homo sapiens, UniProt Q96H15); assay: Dot blotting, binding of hTim4-184-Fc to PS; conditions: 0.15 μg of PS spotted; fusion protein 0.5 μg/mL, 4° C. overnight
T7 construct: replaced N-terminal leader; Freestyle 293F, purified
Protocol: as §1

[8] = target: T8, human Tim4 IgG Fc fusion protein, modified type hTim4-Δ131-240-Fc (55 mucin domain residues), SEQ ID NO: 55 (Homo sapiens, UniProt Q96H15, DEL135-260); assay: ELISA, binding capacity of hTim4-Δ131-240-Fc to PS; conditions: n = 2
T8 construct: made in house; host or cells: Freestyle 293F cells
Excerpt: as §2, §3, §4

[9] = target: T3, human Tim4 IgG Fc fusion protein, modified type hTim4-187-Fc, SEQ ID NO: 59; assay: Dot blotting, binding of hTim4-187-Fc to PS; conditions: 0.15 μg of PS spotted; fusion protein 0.5 μg/mL, 4° C. overnight
Protocol: as §1

[10] = target: T9, human Tim4 IgG Fc fusion protein, modified type hTim4-184-Fc (55 mucin domain residues), SEQ ID NO: 61 (Homo sapiens, UniProt Q96H15); assay: ELISA, binding capacity of hTim4-184-Fc to PS; conditions: n = 2
T9 construct: made in house; host or cells: Freestyle 293F cells
Excerpt: as §2, §3, §4

[11] = target: T10, human Tim4 IgG Fc fusion protein, modified type hTim4-240-Fc, SEQ ID NO: 51 (Homo sapiens, UniProt Q96H15, V240A); assay: Dot blotting, binding of hTim4-240-Fc to PS; conditions: 0.15 μg of PS spotted; fusion protein 0.5 μg/mL, 4° C. overnight
T10 construct: replaced N-terminal leader; Freestyle 293F, purified
Protocol: as §1

[12] = target: T11, human Tim4 IgG Fc fusion protein, modified type hTim4-178-Fc, SEQ ID NO: 65 (Homo sapiens, UniProt Q96H15); assay: Dot blotting, binding of hTim4-178-Fc to PS; conditions: 0.15 μg of PS spotted; fusion protein 0.5 μg/mL, 4° C. overnight
T11 construct: replaced N-terminal leader; Freestyle 293F, purified
Protocol: as §1

[13] = target: T12, human Tim4 IgG Fc fusion protein, modified type hTim4-Δ131-187Δ241-310-Fc (58 mucin domain residues), SEQ ID NO: 57 (Homo sapiens, UniProt Q96H15, DEL135-187/V240A); assay: ELISA, binding capacity of hTim4-Δ131-187Δ241-310-Fc to PS; conditions: n = 2
T12 construct: made in house; host or cells: Freestyle 293F cells
Excerpt: as §2, §3, §4

[14] = target: T13, human Tim4 wild-type IgG Fc fusion protein hTim4-Fc (181 mucin domain residues), SEQ ID NO: 49 (Homo sapiens, UniProt Q96H15, D300G/G301W/M299D/Q298T/V240A); assay: ELISA, binding capacity of hTim4-Fc to PS; conditions: n = 2
T13 construct: made in house; host or cells: Freestyle 293F cells
Protocol: Using a vector encoding the hTim4 sequence (pCMV6-XL5 Homo sapiens T-cell immunoglobulin and mucin domain containing 4, transcript variant 1 as transfection-ready DNA, OriGene Technologies) as a template, and a primer containing an EcoRV restriction site at 5′-end (SEQ ID NO:22) and a primer containing a BglII restriction site at 3′-end (SEQ ID NO:23), PCR was performed. The obtained PCR product and pFUSE-hIgG1e3-Fc2 (InvivoGen) encoding the human IgG-Fc region were each digested with EcoRV and BglII, and the resulting digestion products were ligated to each other. E. coli (JM109, Takara Bio Inc.) was transformed with the resulting ligation product, and colonies were obtained. From the obtained colonies, plasmids were extracted, and the DNA sequences of the plasmids were analyzed. A colony having the hTim4 sequence inserted therein was subjected to large-scale culture, to obtain a vector. […]
as §3

[15] = target: T14, human Tim4 IgG Fc fusion protein, modified type hTim4-175-Fc, SEQ ID NO: 67 (Homo sapiens, UniProt Q96H15); assay: Dot blotting, binding of hTim4-175-Fc to PS; conditions: 0.15 μg of PS spotted; fusion protein 0.5 μg/mL, 4° C. overnight
T14 construct: replaced N-terminal leader; Freestyle 293F, purified
Protocol: as §1

[16] = target: T15, human Tim4 IgG Fc fusion protein, modified type hTim4-181-Fc (52 mucin domain residues), SEQ ID NO: 63 (Homo sapiens, UniProt Q96H15); assay: ELISA, binding capacity of hTim4-181-Fc to PS; conditions: n = 2
T15 construct: made in house; host or cells: Freestyle 293F cells
Excerpt: as §2, §3, §4

A431 tumor = assay: Diagnosis of apoptosis in target tissue (TUNEL and activated caspase 3 staining of tumor sections); type: in vivo, mouse (Balb/c-Ajcl-nu/nu); conditions: MMC 5 mg/6.25 mL/kg via tail vein, one, 3 and 5 days before the RI-labeled product
Excerpt: Male Balb/c-Ajcl-nu/nu mice of 5 to 6 weeks old (CLEA Japan, Inc.) were provided, and divided into two groups (the MMC administration group and the vehicle group; 3 individuals per group). A431 cells were inoculated into the left femoral region of each mouse, 2 to 3 weeks before the PET experiment for the MMC administration group, or 10 days to 2 weeks before the PET experiment for the vehicle group. Individuals of which the tumor size became […] on the day before the administration of the RI-labeled product were subjected to the PET experiment. One day, 3 days, and 5 days before the administration of the RI-labeled product, MMC (mitomycin C) was administered via the tail vein at an amount of 5 mg/6.25 mL/kg for the MMC administration group, and physiological saline was administered at amount of 6.25 mL/kg for the vehicle group.
After the completion of the PET experiment, the tumor was isolated from each mouse, and frozen sections were prepared. The prepared frozen sections were fixed with cold methanol, and stored at −20° C. until use. The sections were used for the experiment within 3 to 5 days after the dissection.
The frozen sections were subjected to blocking using Protein Block, Serum-Free (Dako), and then subjected to TUNEL staining using DeadEnd Fluorometric TUNEL System (Promega). […]

[17] = 10-fold dilution series of the fusion protein on PS-coated plate, read-out: EC50 ± SE (50% effective concentration)

T12 sequence (Q96H15 with tags, fused parts or gaps DEL135-187/V240A limits assumed): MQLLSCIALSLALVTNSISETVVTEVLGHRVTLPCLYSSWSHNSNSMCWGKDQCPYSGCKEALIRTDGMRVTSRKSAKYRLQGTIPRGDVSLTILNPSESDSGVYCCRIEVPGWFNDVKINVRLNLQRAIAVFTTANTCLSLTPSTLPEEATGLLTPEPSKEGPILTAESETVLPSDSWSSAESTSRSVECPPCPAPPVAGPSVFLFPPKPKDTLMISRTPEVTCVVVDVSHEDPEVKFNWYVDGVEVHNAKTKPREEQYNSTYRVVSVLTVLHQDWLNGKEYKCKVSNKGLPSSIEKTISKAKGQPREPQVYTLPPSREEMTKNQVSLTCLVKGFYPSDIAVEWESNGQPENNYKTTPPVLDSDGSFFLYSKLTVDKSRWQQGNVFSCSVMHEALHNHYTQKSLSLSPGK
T9 sequence (Q96H15 with tags, fused parts or gaps): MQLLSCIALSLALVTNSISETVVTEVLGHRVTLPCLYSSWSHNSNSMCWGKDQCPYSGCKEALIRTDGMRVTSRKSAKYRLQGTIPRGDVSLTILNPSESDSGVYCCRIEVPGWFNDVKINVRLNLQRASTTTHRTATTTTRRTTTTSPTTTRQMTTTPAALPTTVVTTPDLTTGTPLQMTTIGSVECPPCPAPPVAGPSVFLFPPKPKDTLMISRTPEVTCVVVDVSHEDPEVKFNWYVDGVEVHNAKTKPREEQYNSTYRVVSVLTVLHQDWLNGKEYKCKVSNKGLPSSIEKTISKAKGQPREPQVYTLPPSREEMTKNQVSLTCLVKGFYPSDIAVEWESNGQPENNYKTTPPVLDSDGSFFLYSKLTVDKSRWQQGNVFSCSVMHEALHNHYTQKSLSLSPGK
T4 sequence (Q96H15 with tags, fused parts or gaps): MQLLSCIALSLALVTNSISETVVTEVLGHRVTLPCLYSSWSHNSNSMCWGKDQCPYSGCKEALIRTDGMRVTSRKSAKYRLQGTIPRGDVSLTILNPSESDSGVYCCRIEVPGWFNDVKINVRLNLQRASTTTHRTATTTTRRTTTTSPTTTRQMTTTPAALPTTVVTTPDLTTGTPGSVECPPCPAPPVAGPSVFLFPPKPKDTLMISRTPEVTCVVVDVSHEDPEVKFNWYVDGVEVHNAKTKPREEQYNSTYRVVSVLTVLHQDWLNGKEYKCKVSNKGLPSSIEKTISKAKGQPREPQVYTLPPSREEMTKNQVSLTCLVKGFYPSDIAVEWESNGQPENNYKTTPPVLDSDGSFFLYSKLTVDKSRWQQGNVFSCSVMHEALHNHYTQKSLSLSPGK
T15 sequence (Q96H15 with tags, fused parts or gaps): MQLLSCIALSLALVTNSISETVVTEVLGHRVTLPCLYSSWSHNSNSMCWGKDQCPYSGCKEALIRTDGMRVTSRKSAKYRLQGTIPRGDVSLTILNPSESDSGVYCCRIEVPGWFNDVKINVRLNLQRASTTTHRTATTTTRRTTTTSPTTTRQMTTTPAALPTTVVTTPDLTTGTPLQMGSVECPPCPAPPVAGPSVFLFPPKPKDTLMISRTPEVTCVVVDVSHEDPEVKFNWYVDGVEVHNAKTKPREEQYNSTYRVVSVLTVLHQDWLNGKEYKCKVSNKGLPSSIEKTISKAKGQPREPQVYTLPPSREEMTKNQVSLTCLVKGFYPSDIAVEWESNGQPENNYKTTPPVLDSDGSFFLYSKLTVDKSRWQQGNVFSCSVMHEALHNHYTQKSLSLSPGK
T5 sequence (Q96H15 with tags, fused parts or gaps): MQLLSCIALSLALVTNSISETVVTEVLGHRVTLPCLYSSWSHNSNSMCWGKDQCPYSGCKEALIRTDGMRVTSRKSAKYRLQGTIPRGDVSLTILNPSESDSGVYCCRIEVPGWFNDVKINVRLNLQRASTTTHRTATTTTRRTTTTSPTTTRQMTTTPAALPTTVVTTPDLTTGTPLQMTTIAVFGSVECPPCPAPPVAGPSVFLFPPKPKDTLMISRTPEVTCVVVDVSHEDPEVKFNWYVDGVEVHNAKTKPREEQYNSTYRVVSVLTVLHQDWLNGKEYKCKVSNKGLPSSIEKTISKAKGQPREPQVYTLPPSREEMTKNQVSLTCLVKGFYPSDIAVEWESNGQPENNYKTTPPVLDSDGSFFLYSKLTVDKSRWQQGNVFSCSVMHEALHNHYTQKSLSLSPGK
T6 sequence (Q96H15 with tags, fused parts or gaps V240A): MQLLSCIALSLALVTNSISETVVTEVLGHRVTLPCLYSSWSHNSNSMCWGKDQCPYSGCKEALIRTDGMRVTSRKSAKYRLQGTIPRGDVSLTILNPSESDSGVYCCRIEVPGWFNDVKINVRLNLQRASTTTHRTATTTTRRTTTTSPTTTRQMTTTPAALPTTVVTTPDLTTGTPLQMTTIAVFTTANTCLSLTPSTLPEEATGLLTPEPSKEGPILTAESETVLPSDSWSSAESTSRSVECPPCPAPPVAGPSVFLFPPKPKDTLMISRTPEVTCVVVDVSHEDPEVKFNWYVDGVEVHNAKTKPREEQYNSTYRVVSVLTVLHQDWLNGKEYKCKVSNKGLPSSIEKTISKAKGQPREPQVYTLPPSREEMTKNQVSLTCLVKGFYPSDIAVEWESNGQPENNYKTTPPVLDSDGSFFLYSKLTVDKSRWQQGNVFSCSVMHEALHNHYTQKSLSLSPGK
T13 sequence (Q96H15 with tags, fused parts or gaps V240A/Q298T/M299D/D300G/G301W): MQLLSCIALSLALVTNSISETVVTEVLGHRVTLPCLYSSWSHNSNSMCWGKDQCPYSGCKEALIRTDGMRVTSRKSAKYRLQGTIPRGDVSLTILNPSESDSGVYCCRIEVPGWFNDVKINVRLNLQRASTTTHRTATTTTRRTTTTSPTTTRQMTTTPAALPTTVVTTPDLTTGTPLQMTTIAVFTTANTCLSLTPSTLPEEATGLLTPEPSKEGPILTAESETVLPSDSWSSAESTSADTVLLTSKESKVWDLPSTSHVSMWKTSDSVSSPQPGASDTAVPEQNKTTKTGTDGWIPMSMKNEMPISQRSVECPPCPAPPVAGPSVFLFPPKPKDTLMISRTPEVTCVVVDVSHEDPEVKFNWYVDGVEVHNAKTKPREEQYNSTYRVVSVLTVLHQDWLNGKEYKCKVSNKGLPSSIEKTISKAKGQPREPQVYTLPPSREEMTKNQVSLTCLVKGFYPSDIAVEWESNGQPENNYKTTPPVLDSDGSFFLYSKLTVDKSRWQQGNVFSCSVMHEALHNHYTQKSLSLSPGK
T8 sequence (Q96H15 with tags, fused parts or gaps DEL135-260 limits assumed): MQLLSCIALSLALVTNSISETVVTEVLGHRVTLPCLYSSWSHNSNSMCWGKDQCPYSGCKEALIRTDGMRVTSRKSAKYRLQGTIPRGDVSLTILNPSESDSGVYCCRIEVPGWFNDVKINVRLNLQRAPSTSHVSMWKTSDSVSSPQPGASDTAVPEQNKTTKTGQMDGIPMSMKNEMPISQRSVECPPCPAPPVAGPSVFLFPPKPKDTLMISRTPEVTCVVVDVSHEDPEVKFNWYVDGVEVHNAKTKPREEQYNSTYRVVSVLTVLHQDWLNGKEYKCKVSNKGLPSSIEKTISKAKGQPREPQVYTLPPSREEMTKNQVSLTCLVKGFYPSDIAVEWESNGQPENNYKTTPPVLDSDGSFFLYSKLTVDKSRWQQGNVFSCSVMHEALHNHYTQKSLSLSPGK
T2 sequence (Q96H15 with tags, fused parts or gaps): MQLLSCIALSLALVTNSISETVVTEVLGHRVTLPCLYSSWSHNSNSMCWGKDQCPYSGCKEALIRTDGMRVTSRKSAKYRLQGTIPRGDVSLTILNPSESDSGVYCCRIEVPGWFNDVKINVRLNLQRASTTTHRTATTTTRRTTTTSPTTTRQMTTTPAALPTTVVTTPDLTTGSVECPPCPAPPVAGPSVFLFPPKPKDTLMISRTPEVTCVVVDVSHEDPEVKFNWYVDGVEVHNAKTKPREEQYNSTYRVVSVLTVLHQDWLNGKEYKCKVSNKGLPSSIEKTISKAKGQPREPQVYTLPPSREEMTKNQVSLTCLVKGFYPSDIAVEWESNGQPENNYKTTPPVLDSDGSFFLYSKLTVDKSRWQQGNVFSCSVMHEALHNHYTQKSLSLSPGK
T10 sequence (Q96H15 with tags, fused parts or gaps V240A): as the sequence (Q96H15 with tags, fused parts or gaps V240A) above

- binding to PS [1]: binding to PS was confirmed
- EC50 [2, 17]: 76.2 ± 19.5 nM
- Bmax ± SE (maximum binding amount) ([2]; PS-coated plate): 0.77 ± 0.08 Abs 450 nm
- binding specificity to PS among phospholipids [3]: binds to only PS
- EC50 [4, 17]: 67 ± 54.8 nM
- Bmax ± SE (maximum binding amount) ([4]; PS-coated plate): 0.63 ± 0.22 Abs 450 nm
- EC50 [5, 17]: 62.8 ± 20.2 nM
- Bmax ± SE (maximum binding amount) ([5]; PS-coated plate): 1.02 ± 0.14 Abs 450 nm
- EC50 [6, 17]: 7.1 ± 14.9 nM
- Bmax ± SE (maximum binding amount) ([6]; PS-coated plate): 0.01 ± 0.01 Abs 450 nm
- binding to PS [7]: binding to PS was confirmed
- EC50 [8, 17]: 148 ± 85.8 nM
- Bmax ± SE (maximum binding amount) ([8]; PS-coated plate): 0.07 ± 0.02 Abs 450 nm
- binding to PS [9]: binding to PS was confirmed
- EC50 [10, 17]: 100 ± 45.2 nM
- Bmax ± SE (maximum binding amount) ([10]; PS-coated plate): 0.84 ± 0.17 Abs 450 nm
- binding to PS [11]: binding to PS was confirmed
- binding to PS [12]: binding to PS was confirmed
- EC50 [13, 17]: 132 ± 305 nM
- Bmax ± SE (maximum binding amount) ([13]; PS-coated plate): 0.02 ± 0.03 Abs 450 nm
- EC50 [14, 17]: 0.2 nM
- Bmax ± SE (maximum binding amount) ([14]; PS-coated plate): 0.00 ± 0.00 Abs 450 nm
- binding to PS [15]: binding to PS was confirmed
- EC50 [16, 17]: 47.5 ± 6.2 nM
- Bmax ± SE (maximum binding amount) ([16]; PS-coated plate): 0.74 ± 0.04 Abs 450 nm
Compound: 3-sn-phosphatidyl-L-serine [PS]

Compound: CO[C@@]12[C@H](COC(N)=O)C3=C(C(=O)C(C)=C(N)C3=O)N1C[C@@H]1N[C@@H]12 [MMC, mitomycin C]
- occurrence of apoptosis in the tumor (A431 tumor): occurrence of apoptosis in the tumor of the MMC-administered individuals was confirmed
